Measured values reported in ChEMBL document CHEMBL3352448, “Phytochemical analysis and antileukemic activity of polyphenolic constituents of Toona sinensis” (Bioorg Med Chem Lett, 2014).
Activity calls are given as the source filed them. The calls are words filed in the database; no cut-off is given here.

What was measured:
[1] = Retention time of the compound by UPLC analysis; format: physicochemical
[2] = (§1) Cytotoxicity against human HL60 cells assessed as cell survival at 50 uM after 72 hrs by CCK8 assay; format: functional; settings: HL-60, 72 h, read-out: Survival
[3] = test system: HL-60; assay: Induction of apoptosis in human HL60 cells assessed as nuclear fragmentation at 50 uM by Hoechst 33342 staining method; format: functional, cell-based
[4] = test system: HL-60; assay: Induction of cell morphological changes in human HL60 cells assessed as increase in cytoplasmic content at 50 uM by Giemsa staining method; format: functional, cell-based
[5] = test system: HL-60; assay: Induction of apoptosis in human HL60 cells assessed as chromatin condensation at 50 uM by Hoechst 33342 staining method; format: functional, cell-based
[6] = test system: HL-60; assay: Induction of cell morphological changes in human HL60 cells assessed as increase in cellular size at 50 uM by Giemsa staining method; format: functional, cell-based
[7] = test system: HL-60; assay: Induction of cell morphological changes in human HL60 cells assessed as increase in nuclear complexity at 50 uM by Giemsa staining method; format: functional, cell-based
[8] = test system: HL-60; assay: Induction of apoptosis in human HL60 cells assessed as membrane blebbing at 50 uM by Hoechst 33342 staining method; format: functional, cell-based
[9] = test system: HL-60; assay: as §1; format: functional

Row | Compound | Retention_time [1] [min] | viability at 50 µM [2] [%] | further results
1 | C[C@@H]1O[C@@H](Oc2c(-c3ccc(O)c(O)c3)oc3cc(O)cc(O)c3c2=O)[C@H](O)[C@H](O)[C@H]1O [QUERCITRIN] | 23.37 | 46.8 | 
2 | O=C(OC[C@H]1O[C@@H](Oc2c(-c3ccc(O)cc3)oc3cc(O)cc(O)c3c2=O)[C@H](OC(=O)c2cc(O)c(O)c(O)c2)[C@@H](O)[C@@H]1O)c1cc(O)c(O)c(O)c1 | 23.37 | 24.6 | Activity [3]: Active; Activity [4]: Active; Activity [5]: Active; Activity [6]: Active; Activity [7]: Active; Activity [8]: Active
3 | CCOC(=O)c1cc(O)c(O)c(O)c1 [ETHYLGALLATE] | 20.55 | 55.7 | 
4 | Oc1cc(O)c2c(c1)O[C@H](c1ccc(O)c(O)c1)[C@@H](O)C2 [CIANIDANOL] | 13.56 | 47 | 
5 | O=C(O[C@H]1[C@H](Oc2c(-c3ccc(O)cc3)oc3cc(O)cc(O)c3c2=O)O[C@H](CO)[C@@H](O)[C@@H]1O)c1cc(O)c(O)c(O)c1 | 27.02 | 48.3 | 
6 | Oc1cc(O)c2c(c1)O[C@H](c1ccc(O)c(O)c1)[C@H](O)C2 [(-)-EPICATECHIN] | 17.1 |  | 
7 | O=c1c(O)c(-c2ccc(O)cc2)oc2cc(O)cc(O)c12 |  |  | Activity [9]: Active
8 | O=C(O)c1cc(O)c(O)c(O)c1 [GALLIC ACID] | 5.04 | 4.3 | 
9 | Oc1cc(O)c2c(c1)O[C@H](c1ccc(O)c(O)c1)[C@@H](O)[C@@H]2c1c(O)cc(O)c2c1O[C@H](c1ccc(O)c(O)c1)[C@@H](O)C2 | 14.6 | 58.9 | 
10 | C[C@@H]1O[C@@H](Oc2c(-c3ccc(O)cc3)oc3cc(O)cc(O)c3c2=O)[C@H](O)[C@H](O)[C@H]1O [AFZELIN] | 25.42 | 45.8 | 
11 | O=c1c(O[C@@H]2O[C@H](CO)[C@@H](O)[C@H](O)[C@H]2O)c(-c2ccc(O)cc2)oc2cc(O)cc(O)c12 |  |  | Activity [9]: Active
12 | O=c1c(O)c(-c2ccc(O)c(O)c2)oc2cc(O)cc(O)c12 [QUERCETIN] | 28.97 | 29.7 | 
